Results taken from PMC12400753 (Respiratory Research, 2025).

Legend:
LPAR1 = LPAR1 (Homo sapiens, UniProt Q92633); assay: LPA-induced calcium mobilization in transiently transfected HEK293T cells; assay type: cell-based; set-up: host or cells: HEK293T; conditions: 3 h preincubation; LPA at EC80 5 µM
Procedure: We had previously assessed selectivity against LPAR2 and 3 [11]. […] Human LPAR1-6 plasmids were each transiently transfected into HEK293T cells and the EC80 (effective concentration producing 80% maximal effect) for LPA activation empirically determined. Selectivity was then tested in a concentration response paradigm using a 3 h preincubation followed by LPA-induced calcium mobilization.
Plasmids containing human LPAR1-6 were obtained from Origene (Rockville, MD) and maxiprepped at Eton Biosciences (San Diego, CA). Transfection mix was prepared by adding Fugene 6 transfection mix to serum free media and 0.1 µg plasmid. After a 20 m incubation, HEK293T cells (ATCC, Manassas VA) were lifted with Accutase and added to the Fugene mix at a final concentration of 0.5 × 10^4 cells/well. Cells were then plated on black clear bottom 96-well plates and incubated overnight in a 37 °C, 5% CO2 incubator. […] During the last hour of incubation, media was removed and replaced with Fluo-4 NW calcium assay dye prepared as per manufacturer’s recommendations in assay buffer. Agonist plates containing LPA were prepared for individual receptor subytpes using their respective EC80. Calcium mobilization was measured as per manufacturer’s directions on a Flexstation 3 (Molecular Devices, San Jose, CA).

[1] = tested on: fresh human PCLS from donors with pulmonary fibrosis; assay: Secreted biomarkers in fresh PCLS from pulmonary fibrosis donors; assay type: cell-based; conditions: PIPE-791 0.03, 0.3, 3 µM; 48 h
Source text: Translationally, biomarker-based strategies for assessing aberrant extracellular matrix deposition and remodeling in the context of disease pathogenesis and compound efficacy have become increasingly relevant. For the PCLS gene expression studies, slices were preserved through slow cryogenic freezing of tissue. While this affords experimental flexibility, some physiological relevance is lost over the course of cryostorage and recovery (e.g., immune cell loss). To circumvent this, fresh PCLS from two donors with pulmonary fibrosis were generated and immediately placed into culture. For this experiment, well-established, secreted fibrotic markers that encompass fibrogenesis and tissue remodeling were measured: C3M (a marker of collagen III degradation and an indicant of ECM remodeling and tissue turnover), Pro-C3 (a neo-epitope fragment of collagen III and a marker of active fibrogenesis and fibrosis progression), and Pro-C6 (a neoepitope fragment of COLVIA3 and a marker of remodeling and wound healing). […] Media was then removed and analyzed for biomarker concentration.
PCLS cultures for secreted biomarker analysis were performed at Fraunhofer ITEM (Hanover, Germany) using tissue from pathologist qualified, pulmonary fibrosis patients. Tissue from individual donors and 2 lung regions were collected in accordance with policies approved by the Hanover Medical School ethics committee. Only fibrotic tissue was used for experiments. Region 1 consisted of subpleural tissue and Region 2 of central tissue. For each, lung lobes were filled with low-melting agarose then sectioned at 300 μm on a Krumdiek tissue slicer as described in Hesse et al., 2022. Slices were incubated in DMEM containing penicillin and streptomycin, two slices per region were used. […] Supernatant was collected and shipped to Nordic Bioscience (Herlev, Denmark) for C3M, Pro-C6 and Pro-C3 analysis. Donor information can be found in Additional File 1.

[2] = tested on: LPA-induced mast cell histamine release; assay: In vivo LPA-induced histamine release; set-up: species or system mouse
Procedure: Female CD-1 mice (Envigo) were allowed to acclimate for ~ 1 week. Animals were subject to a 12 h light – 12 h dark cycle. Mice were multi-housed in Innorack IVC mouse racks (Innovive, San Diego, CA) with access to water and standard rodent chow ad libitum. […] Three hours or 24 h after a single dose or after the last of 4 repeated administrations, 150 µL FAF-PBS/BSA (Control) or LPA (300 µg in 150 µL) was administered IV via the lateral tail vein and mice were immediately placed into an isoflurane chamber. Two minutes later, mice were euthanized by decapitation and trunk blood collected into K3EDTA tubes and stored on wet ice until processing to plasma (1450 x g, 10 min, 4 °C). Plasma was aliquoted into two 96-well polypropylene plates and transferred to −80 °C for storage until analysis for histamine by EIA.

Sequence of LPAR1 (Q92633 whole entry): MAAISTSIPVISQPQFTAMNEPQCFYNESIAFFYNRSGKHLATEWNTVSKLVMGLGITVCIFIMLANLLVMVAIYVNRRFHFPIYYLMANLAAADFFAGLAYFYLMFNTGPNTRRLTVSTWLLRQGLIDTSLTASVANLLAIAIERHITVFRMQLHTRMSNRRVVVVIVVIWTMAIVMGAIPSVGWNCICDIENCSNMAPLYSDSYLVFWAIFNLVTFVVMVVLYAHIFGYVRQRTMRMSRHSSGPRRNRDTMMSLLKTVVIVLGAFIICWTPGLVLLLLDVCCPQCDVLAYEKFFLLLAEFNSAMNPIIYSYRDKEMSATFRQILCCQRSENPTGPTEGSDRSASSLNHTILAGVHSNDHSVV

Compound: COc1ccc(NC(=O)N(c2ccccc2C(C)C)C2CCC(C(=O)O)CC2)c(OC(F)F)n1 (stereo not shown) [PIPE-791]
- IC50 (LPAR1): 8 nM
- secreted C3M [1]: reduction in C3M secretion with PIPE-791 at all concentrations tested, with significance observed at 0.03 and 3 µM
- secreted Pro-C3 [1]: did not observe a significant decrease
- secreted Pro-C6 [1]: significant reduction in secreted Pro-C6 at all concentrations
- blockade of LPA-induced histamine release ([2]; oral, 4 consecutive days (steady state), LPA 3 or 24 h after final dose): significant efficacy at 0.3 and 3 mg/kg was observed at both timepoints
- blockade of LPA-induced histamine release ([2]; single oral dose 0.3 mg/kg, LPA challenge 3 or 24 h later): significance was observed at 24 h but not at 3 h
- blockade of LPA-induced histamine release ([2]; single oral dose 3 mg/kg, LPA challenge 3 or 24 h later): significant blockade of histamine release
